Laboratory results: PubChem BioAssay (NCI)
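In this assay, cells in 96-well plates receive the compound at five concentrations for 48 hours. Endpoints are linearly interpolated between the surrounding concentrations. GI50 marks 50% less growth. TGI is the concentration that stops growth completely.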

Assays:
Assay in all cases: DTP human tumour cell line panel, 48 h
HS 578T breast = tested on: HS 578T breast
ACHN renal = tested on: ACHN renal
HT29 colon = tested on: HT29 colon
OVCAR-5 ovarian = tested on: OVCAR-5 ovarian
SR leukemia = tested on: SR leukemia
HCT-116 colon = tested on: HCT-116 colon
OVCAR-3 ovarian = tested on: OVCAR-3 ovarian
TK-10 renal = tested on: TK-10 renal
NCI-H522 lung = tested on: NCI-H522 lung
BT-549 breast = tested on: BT-549 breast

SMILES | GI50 (HS 578T breast) | TGI (HS 578T breast) | GI50 (ACHN renal) | TGI (ACHN renal) | GI50 (HT29 colon) | TGI (HT29 colon) | GI50 (OVCAR-5 ovarian) | TGI (OVCAR-5 ovarian) | GI50 (SR leukemia) | TGI (SR leukemia) | GI50 (HCT-116 colon) | TGI (HCT-116 colon) | GI50 (OVCAR-3 ovarian) | TGI (OVCAR-3 ovarian) | GI50 (TK-10 renal) | TGI (TK-10 renal) | GI50 (NCI-H522 lung) | TGI (NCI-H522 lung) | TGI (BT-549 breast)
C1=N[C@]23C(=N[C@H](N=C2NCc2ccco2)[C@]24N=CNC2=N[C@H]3N=C4NCc2ccco2)N1 | 39.1 µM | > 100 µM | > 100 µM | > 100 µM | > 100 µM | > 100 µM | > 100 µM | > 100 µM | > 100 µM | > 100 µM | > 100 µM | > 100 µM | > 100 µM | > 100 µM | > 100 µM | > 100 µM | > 100 µM | > 100 µM | 
Cc1ccc(S(=O)(=O)NC(=O)C2S(=O)(=O)OCCOS2(=O)=O)cc1 |  |  |  |  |  | > 100 µM |  |  |  | > 100 µM |  | > 100 µM |  | > 100 µM |  | > 100 µM |  | > 100 µM | 
O=C([CH-]C(=O)c1ccccc1)c1ccccc1.[C-]#[O+].[C-]#[O+].[Ir] |  |  |  |  | 63.5 µM | > 100 µM | > 100 µM | > 100 µM |  |  |  |  | > 100 µM | > 100 µM | > 100 µM | > 100 µM |  |  | 
CC(NC(=O)Cc1ccc(OP(=O)(OCc2ccc([N+](=O)[O-])o2)N(C)CCCCCl)cc1)c1ccc(OCC2CCCCC2)c(C(N)=O)c1 (centres undefined) |  |  |  | 37.1 µM |  | 3.18 µM |  | 8.78 µM |  | 4.38 µM |  | 4.52 µM |  | 3.75 µM |  | 15.6 µM |  | 5.18 µM | 
Cn1c(N/N=C/c2ccccc2)nc(-c2ccc3c(c2)OCO3)c(C#N)c1=O |  | > 100 µM |  | > 100 µM |  | > 100 µM |  | > 100 µM |  | > 100 µM |  | > 100 µM |  | 90.6 µM |  | > 100 µM |  | > 100 µM | 
O=C(Nc1ccccc1[N+](=O)[O-])/C(=N/Nc1cccc(Cl)c1)c1c(O)c2ccccc2oc1=O |  |  |  | > 100 µM |  | > 100 µM |  | > 100 µM |  | 2.67 µM |  | 53.6 µM |  | > 100 µM |  | > 100 µM |  | > 100 µM | 
CCOC(=O)/C(Br)=C1\OC(=O)c2ccccc2-c2ccccc21 |  |  |  | > 100 µM |  | > 100 µM |  | > 100 µM |  | 56.7 µM |  | > 100 µM |  | > 100 µM |  | > 100 µM |  | 61.1 µM | 
Cc1cc(N(CCC#N)S(=O)(=O)c2ccccc2)ccc1C=Nc1cccc(C(=O)O)c1 |  |  |  | > 100 µM |  | > 100 µM |  | > 100 µM |  |  |  | > 100 µM |  | > 100 µM |  | > 100 µM |  | > 100 µM | 
CC[C@H](C)[C@H](NC(=O)N(CCC#N)CCN(CCN(C(=O)N[C@@H](Cc1ccccc1)C(=O)OC)c1ccccc1)C(=O)N[C@H](C(=O)OC)C(C)C)C(=O)OC |  | 86.6 µM |  | 26.7 µM |  |  |  | 57.3 µM |  |  |  | 36 µM |  | 39.7 µM |  | 38.5 µM |  |  | 44.7 µM
O=C1CC(c2ccc(Cl)cc2)C2(C(=O)NC(=S)NC2=O)C(c2ccc(Cl)cc2)C1 (centres undefined) |  | 99.4 µM |  | > 100 µM |  | 32.4 µM |  | 47.7 µM |  | > 100 µM |  | 45.5 µM |  | 33.9 µM |  | > 100 µM |  |  | 
CC(C)OP(=O)(OC(C)C)C(=NCCO)NNc1ccc([N+](=O)[O-])cc1 |  |  |  | > 100 µM |  |  |  | > 100 µM |  | > 100 µM |  | > 100 µM |  | > 100 µM |  | > 100 µM |  | > 100 µM | 
C/C=C/CC(C(=O)OCC)(N(C)C(=O)OC(C)(C)C)S(=O)(=O)c1ccc(C)cc1 (centres undefined) |  | > 100 µM |  | > 100 µM |  | > 100 µM |  | > 100 µM |  |  |  | > 100 µM |  | > 100 µM |  | > 100 µM |  | > 100 µM | > 100 µM
CC(=O)O[C@@H]1[C@H](OC2CCCCC2(c2ccccc2)c2ccccc2)O[N+]([O-])=CC12CCCCC2 (some centres undefined) |  | 43.3 µM |  | 31.4 µM |  | 36.2 µM |  | 29.4 µM |  | > 100 µM |  | 32 µM |  | 28.1 µM |  | 30.4 µM |  | 35.2 µM | 
Cc1ccc(Nc2c3c(c(C#N)c4nc5ccccc5n24)CCCC3)cc1 |  | > 100 µM |  | > 100 µM |  | 37.2 µM |  | 95 µM |  |  |  | 36.8 µM |  | 34.6 µM |  | > 100 µM |  | 82.4 µM | > 100 µM
COc1ccc(-c2nc(-c3ccc(OC)cc3)n(-c3ccccc3)n2)cc1 |  | > 100 µM |  | > 100 µM |  | > 100 µM |  | > 100 µM |  |  |  | > 100 µM |  | > 100 µM |  | > 100 µM |  | 62.5 µM | > 100 µM
CCO/C(O)=C(/C(=N)N1CCOCC1)C(=O)Nc1cccc(C(F)(F)F)c1 |  | > 100 µM |  | > 100 µM |  | > 100 µM |  | > 100 µM |  |  |  | > 100 µM |  | > 100 µM |  | > 100 µM |  | > 100 µM | > 100 µM
